The source of these data is US20090312407A1, “Synthetic Flavonoids and Pharmaceutical Compositions and Therapeutic Methods of Treatment of Cancer and other Pathologies” (priority 2007, published 2009).

“And” between values parts separate entries of the source, which are not always exact repeats. Equal values may be shown once. Read-outs that look alike come from different tables or passages of the source.

What is called % Inhibition is the relative decrease from the control value, in per cent. By inhibition is commonly meant the relative decrease from the control value, in per cent.

For series [1] the following is noted: attributed to 3-OH group; cited from earlier work.
The subject of another series is benzodiazepine receptor. Conditions: cited from earlier work.
Series [2] concerns multidrug resistant cells. Conditions: collateral sensitivity; cited from earlier work.
Another series deals with H-9 cells. Briefly: Cytotoxicity on H-9 cells. As to conditions: H-9 cells; same conditions as AZT. It counts as cell-based. From the text:
(§1) The purified and identified analogs were subjected to in vitro biological testing.
These three congeners were further evaluated in H9 and PC3 cells. AZT was employed as a positive control in all of these experiments.

The test system of the next series is MCF-7 cells. Description: Cytotoxicity on MCF-7 cells. As to conditions: for Cells (×10^4) Mean / Cells (×10^4): Table 17, 12-12 to 12-16/2005; for % Inhibition / inhibition at 1 µg/mL / inhibition at 5 µg/mL / inhibition at 10 µg/mL / inhibition at 50 µg/mL: vs 2% DMSO, Table 17; for inhibition at 1 µg/mL / inhibition at 5 µg/mL / inhibition at 10 µg/mL / inhibition at 50 µg/mL: Homo sapiens; for inhibition at 1 µg/mL: MCF7, 1 μg/ml; for inhibition at 5 µg/mL: MCF7, 5 μg/ml; for inhibition at 10 µg/mL: MCF7, 10 μg/ml; for inhibition at 50 µg/mL: MCF7, 50 μg/ml. It counts as cell-based.

The next series has as its system PC-3 cells. Description: Cytotoxicity on PC-3 cells. Format: cell-based. As to conditions: PC-3 cells; same conditions as AZT.
Description: as §1

Setting [3] is: single count, read-out: % Inhibition.

`O=c1c(O)c(-c2ccc(O)c(O)c2)oc2cc(O)cc(O)c12` [quercetin]: in series [1], the mutagenic properties entry is given as “some mutagenic properties”.

As for `O=c1cc(-c2cccc([N+](=O)[O-])c2)oc2ccc(Br)cc12` [6-bromo-3′-nitroflavone], in the series with benzodiazepine receptor, the “activity as benzodiazepine receptor ligand compared to diazepam” value is listed as “close or higher than that of diazepam”.

Regarding `O=c1cc(-c2ccccc2)oc2ccc3ccccc3c12` [β-naphthoflavone], in series [2], the “toxicity to multidrug resistant cells vs drug-sensitive counterparts” value was “considerably more toxic to multidrug resistant cells than to their drug-sensitive counterparts”.

As for `COc1cc(C=CC(=O)c2cc(C)cc([N+](=O)[O-])c2O)cc(OC)c1OC` (stereo in doubt) [CHNM 3M], the “inhibitory activity / growth inhibition compared to AZT” value is given as “much superior” with H-9 cells; “much superior” with MCF-7 cells (MCF-7 cells, same conditions as AZT); “much superior” with PC-3 cells. For the same molecule, the “Cells (×10^4) Mean” value in the series on MCF-7 cells (1 μg/ml) is reported as 44.50 ×10^4; in the series with MCF-7 cells (5 μg/ml) it was 24.75 ×10^4; with MCF-7 cells (10 μg/ml), 4.92 ×10^4; with MCF-7 cells (50 μg/ml), 1.75 ×10^4. The “% Inhibition” value with MCF-7 cells (1 μg/ml, single count) is 11.62%; with MCF-7 cells (5 μg/ml, single count), 52.86% and 51.88%; with MCF-7 cells (10 μg/ml, single count), 90.67%; in the series with MCF-7 cells (50 μg/ml, single count), 96.07% and 97.05%. For the same molecule, the “Cells (×10^4)” value was 44.3 ×10^4 and 45.0 ×10^4 with MCF-7 cells (1 μg/ml, single count); 25.8 ×10^4 and 24.0 ×10^4 and 24.5 ×10^4 in the series on MCF-7 cells (5 μg/ml, single count); 5.0 ×10^4 and 4.8 ×10^4 in the series with MCF-7 cells (10 μg/ml, single count); 1.8 ×10^4 and 2.0 ×10^4 and 1.5 ×10^4 in the series on MCF-7 cells (50 μg/ml, single count). For the same molecule, the inhibition at 1 µg/mL with MCF-7 cells (setting [3]) was 13.1%; in the series on MCF-7 cells (read-out: % Inhibition Mean), 12.6%. In addition, the inhibition at 5 µg/mL in the series with MCF-7 cells (setting [3]) worked out at 49.4%; in the series with MCF-7 cells (read-out: % Inhibition Mean), 51.4%. In addition, the inhibition at 10 µg/mL is 90.2% in the series with MCF-7 cells (setting [3]) and 90.3% in the series on MCF-7 cells (read-out: % Inhibition Mean). The inhibition at 50 µg/mL with MCF-7 cells (setting [3]) and with MCF-7 cells (read-out: % Inhibition Mean) was 96.6% throughout. For the same molecule, the “cytotoxic activities on MCF-7 cells” value in the series with MCF-7 cells (different drug concentrations) is given as “good cytotoxic activities”.

On to `O=c1cc(-c2ccccc2)oc2ccc(Br)cc12` [6-bromoflavone], for which the “activity as benzodiazepine receptor ligand compared to diazepam” value in the series on benzodiazepine receptor is “close or higher than that of diazepam”.
